According to patent US20260216103A1, “USE OF LONG-ACTING ß2AR AGONIST IN PREPARATION OF DRUGS FOR TREATING CANCERS” (HONG KONG SXMETEROL PHARMACEUTICAL CO., LIMITED, priority 2023, published 2026):

Tests used:
[1] = tested on: CT-26 colorectal cancer cells; experiment: subcutaneous tumorigenesis experiment with SX-pretreated colorectal cancer cells; format: in vivo, mice; conditions: cells treated with 10 μM SX for 7 d
Method: (§1) Experimental method and steps: Cancer cells were treated with salmeterol xinafoate (SX) in vitro for 3-7 d, and a subcutaneous or orthotopic tumorigenesis experiment was conducted on mice.
CT-26 colorectal cancer cells were treated with 10 μM salmeterol xinafoate (SX) for 7 d, and cells (1×10^5/mouse) were subcutaneously injected on both sides of the back of mice in a control group and an SX treated group (5 mice/group) to conduct a tumorigenesis experiment. 10 cancers formed subcutaneously at 10 injection sites of 5 mice in the control group, and 8 cancers formed subcutaneously at 10 injection sites of 5 mice in the SX treated group.
Experimental results in FIG. 5 show cancer growth curves and representative cancer photos.

[2] = tested on: kidney cancer cells G-401, 786-O; experiment: tumor sphere formation assay of kidney cancer cells; format: cell-based; conditions: 1 μM, 3 μM, or 10 μM, 7 d; FIG. 22
Text: (§2) As a gold standard for detecting the self-renewal capability of cancer stem cells in vitro, a tumor sphere formation assay may detect individual cancer stem cell that continuously self-renew in a conditioned medium and form tumor spheres consisting of multiple cells. This in vitro experiment is often used to test the responsiveness of clinical patients to anticancer drugs, and guide in vivo medication of the clinical patients.

[3] = tested on: lung cancer cells LLC, H1299, H460, H446; experiment: tumor sphere formation assay of lung cancer cells; format: cell-based; conditions: 1 μM, 3 μM, or 10 μM, 7 d; FIG. 13
Text: as §2

bladder cancer cells RT4 = experiment: tumor sphere formation assay of bladder cancer cells; format: cell-based; conditions: 1 μM, 3 μM, or 10 μM, 7 d; FIG. 16
Text: as §2

[4] = tested on: esophageal cancer cells KYSE-150; experiment: tumor sphere formation assay of esophageal cancer cells; format: cell-based; conditions: 10 μM, 7 d; FIG. 15; P<0.05
Text: as §2
According to culture conditions in Table 5, esophageal cancer cells KYSE-150 were subjected to a tumor sphere formation assay, and treated with salmeterol xinafoate (SX) at a concentration of 10 μM.

brain cancer cells SF126 = experiment: tumor sphere formation assay of brain cancer cells; format: cell-based; conditions: 1 μM, 3 μM, or 10 μM, 7 d; FIG. 25
Text: as §2

LLC lung cancer cells = experiment: subcutaneous tumorigenesis experiment with SX-pretreated lung cancer cells (LLC); format: in vivo, mice; conditions: cells treated with 10 μM SX for 7 d
Method: as §1
In FIG. 6B, LLC lung cancer cells were treated with 10 μM salmeterol xinafoate (SX) for 7 d, and cells (1×10^5/mouse) were subcutaneously injected on both sides of the back of mice in a control group (8 mice) and an SX treated group (5 mice) to conduct a tumorigenesis experiment.
Experimental results in FIG. 6 show cancer growth curves and representative cancer photos.

[5] = tested on: gastric cancer cells SNU-1; experiment: tumor sphere formation assay of gastric cancer cells; format: cell-based; conditions: 10 μM, 7 d; FIG. 23; P<0.001
Text: as §2
According to culture conditions in Table 13, gastric cancer cells SNU-1 were subjected to a tumor sphere formation assay, and treated with salmeterol xinafoate (SX) at a concentration of 10 μM.

[6] = tested on: ovarian cancer cells SKOV3; experiment: tumor sphere formation assay of ovarian cancer cells; format: cell-based; conditions: 1 μM, 3 μM, or 10 μM, 7 d; FIG. 21
Text: as §2

[7] = tested on: KYSE-150 esophageal cancer cells; experiment: subcutaneous tumorigenesis experiment with SX-pretreated esophageal cancer cells; format: in vivo, mice; conditions: cells treated with 10 μM SX for 3 d, 1×10^6/mouse; FIG. 8; P<0.0001 vs control
Method: as §1
KYSE-150 esophageal cancer cells were treated with 10 μM salmeterol xinafoate (SX) for 3 d, and cells (1×10^6/mouse) were subcutaneously injected on both sides of the back of mice in a control group and an SX treated group (3 mice/group) to conduct a tumorigenesis experiment.
Experimental results in FIG. 8 show cancer growth curves.

OCc1cc(C(O)CNCCCCCCOCCCCc2ccccc2)ccc1O (stereo not drawn) [salmeterol xinafoate]
cancers formed subcutaneously at injection sites ([1]; 1×10^5/mouse, 10 injection sites of 5 mice, control group 10): 8 | cancer growth curves (initiation and progression) ([1]; FIG. 5, P<0.0001 vs control): inhibits the initiation and progression of subcutaneous colorectal cancer | number of tumor spheres (self-renewal capability of cancer stem cells) [2]: inhibited the self-renewal capability of the kidney cancer stem cells in a concentration dependent manner | number of tumor spheres (self-renewal capability of cancer stem cells) [3]: inhibited the self-renewal capability of the lung cancer stem cells in a concentration dependent manner | number of tumor spheres (self-renewal capability of cancer stem cells) (bladder cancer cells RT4): inhibited the self-renewal capability of the bladder cancer stem cells in a concentration dependent manner | number of tumor spheres (self-renewal capability of cancer stem cells) [4]: inhibited the self-renewal capability of the esophageal cancer stem cells | number of tumor spheres (self-renewal capability of cancer stem cells) (brain cancer cells SF126): inhibited the self-renewal capability of the brain cancer stem cells in a concentration dependent manner | cancers formed subcutaneously at injection sites (LLC lung cancer cells; 1×10^5/mouse, 10 injection sites of 5 mice, control group all 16 sites): no cancers formed | cancer growth curves (initiation and progression) (LLC lung cancer cells; FIG. 6B, P<0.0001 vs control): inhibits the initiation and progression of subcutaneous lung cancer | number of tumor spheres (self-renewal capability of cancer stem cells) [5]: inhibited the self-renewal capability of the gastric cancer stem cells | number of tumor spheres (self-renewal capability of cancer stem cells) [6]: inhibited the self-renewal capability of the ovarian cancer stem cells in a concentration dependent manner | cancer growth curves (initiation and progression) [7]: inhibits the initiation and progression of subcutaneous esophageal cancer
